Test results from PubChem BioAssay AID2060906 (Molecular Pharmacology Branch, DTP, NCI, 2025).
pIC50: −log10 of the molar value.

Tested on: 485176-168-R4-J1-PDC complex spheroid growth
Experiment: Anticancer human tumor 485176-168-R4-J1-PDC patient-derived pancreatic adenocarcinoma cell line growth inhibition [RAS]
Settings: for pIC50: curve of first compound; for viability, T/C: stronger effect = lower value
Method in brief: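 Agents were tested in combination matrices in half-log decrements from a top concentration at or near clinical Cmax (10 microM if undetermined). Targets were multi-cell spheroids of tumour lines plus HUVEC and MSC stromal cells.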
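Further: spheroids exposed to compounds for seven days before readout.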
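Wherever viability, T/C is given: luminescence viability expressed relative to DMSO vehicle wells set as 100%.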

Cc1nc(N2CCC3(CC2)COC(C)C3N)c(CO)nc1Sc1ccnc(N)c1Cl (centres undefined) + C=CC(=O)N1CCN(c2nc(OCC3CCCN3C)nc3c(F)c(-c4nc(N)cc(C)c4C(F)(F)F)c(Cl)cc23)C(C)C1
pIC50 (second compound 0.00316 µM): < 5.00 | pIC50 (second compound 0.01 µM): < 5.00 | pIC50 (second compound 0.0316 µM): < 5.00 | pIC50 (second compound 0.1 µM): < 5.00 | pIC50 (second compound 0.316 µM): < 5.00 | pIC50 (second compound 1 µM): < 5.00 | viability, T/C (second compound 0.00316 µM, first compound 0.0316 µM): 95.1% | viability, T/C (second compound 0.00316 µM, first compound 0.1 µM): 91.5% | viability, T/C (second compound 0.00316 µM, first compound 0.316 µM): 77.3% | viability, T/C (second compound 0.00316 µM, first compound 1 µM): 71.3% | viability, T/C (second compound 0.00316 µM, first compound 3.16 µM): 79.7% | viability, T/C (second compound 0.00316 µM, first compound 10 µM): 76% | viability, T/C (second compound 0.01 µM, first compound 0.0316 µM): 96.3% | viability, T/C (second compound 0.01 µM, first compound 0.1 µM): 76.5% | viability, T/C (second compound 0.01 µM, first compound 0.316 µM): 78.7% | viability, T/C (second compound 0.01 µM, first compound 1 µM): 74.2% | viability, T/C (second compound 0.01 µM, first compound 3.16 µM): 75.3% | viability, T/C (second compound 0.01 µM, first compound 10 µM): 90.6% | viability, T/C (second compound 0.0316 µM, first compound 0.0316 µM): 94% | viability, T/C (second compound 0.0316 µM, first compound 0.1 µM): 91.5% | viability, T/C (second compound 0.0316 µM, first compound 0.316 µM): 87.2% | viability, T/C (second compound 0.0316 µM, first compound 1 µM): 71.8% | viability, T/C (second compound 0.0316 µM, first compound 3.16 µM): 66.6% | viability, T/C (second compound 0.0316 µM, first compound 10 µM): 71.7% | viability, T/C (second compound 0.1 µM, first compound 0.0316 µM): 91.1% | viability, T/C (second compound 0.1 µM, first compound 0.1 µM): 92.8% | viability, T/C (second compound 0.1 µM, first compound 0.316 µM): 82.5% | viability, T/C (second compound 0.1 µM, first compound 1 µM): 65.1% | viability, T/C (second compound 0.1 µM, first compound 3.16 µM): 77.6% | viability, T/C (second compound 0.1 µM, first compound 10 µM): 74.6% | viability, T/C (second compound 0.316 µM, first compound 0.0316 µM): 101% | viability, T/C (second compound 0.316 µM, first compound 0.1 µM): 99.8% | viability, T/C (second compound 0.316 µM, first compound 0.316 µM): 81.8% | viability, T/C (second compound 0.316 µM, first compound 1 µM): 83.6% | viability, T/C (second compound 0.316 µM, first compound 3.16 µM): 74.2% | viability, T/C (second compound 0.316 µM, first compound 10 µM): 71% | viability, T/C (second compound 1 µM, first compound 0.0316 µM): 103% | viability, T/C (second compound 1 µM, first compound 0.1 µM): 91% | viability, T/C (second compound 1 µM, first compound 0.316 µM): 80.4% | viability, T/C (second compound 1 µM, first compound 1 µM): 73.2% | viability, T/C (second compound 1 µM, first compound 3.16 µM): 81.5% | viability, T/C (second compound 1 µM, first compound 10 µM): 76.5%

CCC(CC)c1cc(NC2CCC(N)C2)n2nccc2n1 (centres undefined) + CCn1c(-c2cc(N3CCN(C)CC3)cnc2C(C)OC)c2c3cc(ccc31)-c1csc(n1)CC(NC(=O)C1CC1C)C(=O)N1CCCC(N1)C(=O)OCC(C)(C)C2
pIC50 (second compound 0.000949 µM): 5.95 | pIC50 (second compound 0.003 µM): 5.90 | pIC50 (second compound 0.00949 µM): 5.97 | pIC50 (second compound 0.03 µM): 6.03 | pIC50 (second compound 0.0949 µM): 5.98 | pIC50 (second compound 0.3 µM): 6.00 | viability, T/C (second compound 0.000949 µM, first compound 0.0316 µM): 92.1% | viability, T/C (second compound 0.000949 µM, first compound 0.1 µM): 83.7% | viability, T/C (second compound 0.000949 µM, first compound 0.316 µM): 84.7% | viability, T/C (second compound 0.000949 µM, first compound 1 µM): 55.9% | viability, T/C (second compound 0.000949 µM, first compound 3.16 µM): 1.96% | viability, T/C (second compound 0.000949 µM, first compound 10 µM): 0.46% | viability, T/C (second compound 0.003 µM, first compound 0.0316 µM): 94.5% | viability, T/C (second compound 0.003 µM, first compound 0.1 µM): 94.3% | viability, T/C (second compound 0.003 µM, first compound 0.316 µM): 100% | viability, T/C (second compound 0.003 µM, first compound 1 µM): 62.4% | viability, T/C (second compound 0.003 µM, first compound 3.16 µM): 1.91% | viability, T/C (second compound 0.003 µM, first compound 10 µM): 0.43% | viability, T/C (second compound 0.00949 µM, first compound 0.0316 µM): 106% | viability, T/C (second compound 0.00949 µM, first compound 0.1 µM): 78.7% | viability, T/C (second compound 0.00949 µM, first compound 0.316 µM): 89.1% | viability, T/C (second compound 0.00949 µM, first compound 1 µM): 53.4% | viability, T/C (second compound 0.00949 µM, first compound 3.16 µM): 1.09% | viability, T/C (second compound 0.00949 µM, first compound 10 µM): 0.36% | viability, T/C (second compound 0.03 µM, first compound 0.0316 µM): 83.6% | viability, T/C (second compound 0.03 µM, first compound 0.1 µM): 84.1% | viability, T/C (second compound 0.03 µM, first compound 0.316 µM): 82.8% | viability, T/C (second compound 0.03 µM, first compound 1 µM): 47.6% | viability, T/C (second compound 0.03 µM, first compound 3.16 µM): 1.14% | viability, T/C (second compound 0.03 µM, first compound 10 µM): 0.38% | viability, T/C (second compound 0.0949 µM, first compound 0.0316 µM): 77.5% | viability, T/C (second compound 0.0949 µM, first compound 0.1 µM): 89% | viability, T/C (second compound 0.0949 µM, first compound 0.316 µM): 68.5% | viability, T/C (second compound 0.0949 µM, first compound 1 µM): 53% | viability, T/C (second compound 0.0949 µM, first compound 3.16 µM): 0.88% | viability, T/C (second compound 0.0949 µM, first compound 10 µM): 0.45% | viability, T/C (second compound 0.3 µM, first compound 0.0316 µM): 81.4% | viability, T/C (second compound 0.3 µM, first compound 0.1 µM): 70% | viability, T/C (second compound 0.3 µM, first compound 0.316 µM): 71.7% | viability, T/C (second compound 0.3 µM, first compound 1 µM): 50.1% | viability, T/C (second compound 0.3 µM, first compound 3.16 µM): 0.86% | viability, T/C (second compound 0.3 µM, first compound 10 µM): 0.45%
